Marks after values point to notes of the source that are not given here.
How the values were obtained:
[1] = tested on: human platelet-rich plasma (PRP); assay: In vitro agonist-induced platelet aggregation (aggregometer); format: cell-based
Experimental: Figure 3 Effects of CSL on agonist-induced platelet aggregation. Platelet-rich plasma (PRP) was preincubated for 5 min with different concentrations of CSL, Riva, or the vehicle. […] Data are shown as mean values ± SD of five independent experiments. * p < 0.05 vs. D. D = 0.2% DMSO, used as the vehicle control.
(§1) Ten fasting healthy volunteers (aged 24–28; six women and four men) who were free of allergies, cardiovascular problems, carbohydrate, or lipid metabolic abnormalities and had not taken any morning medication had their blood samples taken. None of our subjects used addictive drugs or antioxidant food supplements, and their diets were well balanced. The plasma from the blood samples was immediately spun down (1300× g for 15 min) to separate it from sodium citrate (10.9 mM) and pooled for the following investigations. Next, human blood samples were spun down at room temperature to rapidly separate the PRP. The PRP concentration was adjusted to 1 × 10^9 platelets/mL using a hemocytometer. After being rinsed once in HEPES buffer containing 1 mM CaCl2, the PRP pellet was maintained at room temperature for an additional 30 min. Then, 10 mL of the platelet samples were utilized to measure each clotting time point. The IRB of Kyungpook National University Hospital (Daegu, Republic of Korea) approved this study protocol (KNUH 2012-01-010).
CSL dissolved in DMSO was incubated with human PRP for a specified time (1, 3, 5, or 10 min). […]

[2] = tested on: platelet-poor plasma (PPP); assay: In vitro aPTT clotting time in platelet-poor plasma; set-up: species or system human; conditions: PPP incubated 15 min
Experimental: (§2) Figure 2 Effects of CSL on clotting time. (A) Platelet-poor plasma (PPP) was incubated with the indicated concentrations of CSL or rivaroxaban (Riva) for 15 min. (B) One hour after administering DMSO, CSL, or Riva, blood was collected from the mice, and PPP was obtained. Then, in vitro aPTT (A) or ex vivo aPTT was measured, as described in the Methods sections. Data are shown as mean values ± SD of five independent experiments. * p < 0.05 vs. D. D = 0.2% DMSO, used as the vehicle control.
as §1
Plasma was taken by centrifuging blood (2000× g for 10 min) at room temperature following dimethyl sulfoxide (DMSO) or CSL administration for 1 h to assess PT and aPTT using a thrombotimer (Behnk Elektronik, Norderstedt, Germany). Micronized silica was utilized as an activator for the aPTT test. Briefly, 100 μL of platelet-poor plasma (PPP) and 100 μL of aPTT assay reagent were combined for 1 min at 37 °C, 100 µL of CaCl2 (20 mM) was added, and the clotting times were noted. […] Next, the clotting time was measured.

[3] = tested on: collagen and epinephrine-induced pulmonary thrombosis; assay: Acute pulmonary thrombosis induced by collagen and epinephrine; format: in vivo, mouse; conditions: for Mortality %: then collagen + epinephrine, mice; for Scored thrombus formation (Thrombi), lung: graded as thrombi per 25 mm^2 lung field
Experimental: Mice were separated into several groups after being fasted overnight (10 animals each). CSL was dissolved in DMSO and given intravenously to each mouse. After 1 h, the animals received an injection of collagen and epinephrine mixture (500 μg/kg each) to induce acute thrombosis. Each mouse was closely observed for 15 min to see if it had recovered from the acute thrombosis challenge, had been paralyzed, or had passed away. H&E-stained lung tissue slices from five mice were randomly selected for the histologic investigation to determine the extent of pulmonary thrombus development. The number of arteries greater than 20 μm in diameter with any detectable thrombus was counted in each of the five view fields randomly selected from the left lobe in each section (one section per mouse). Twenty-five fields for each group were compared as a result. A total of 60–80 vessels in each segment were imaged using the system (Leica, Germany). The results were graded as the number of thrombi per 25 mm^2 lung field as previously described.

[4] = tested on: platelet-poor plasma (PPP); assay: Prothrombin time (PT) after administration to mice; format: in vivo, mouse; conditions: administered to mice; data not shown
Experimental: (§3) First, the potential cytotoxicity of […] on HUVECs was assessed using the 3-(4,5-dimethylthiazol-2-yl)-2,5-diphenyltetrazolium bromide (MTT) assay. […] The activated partial thromboplastin time (aPTT) and prothrombin time (PT), two coagulation parameters altered by CSL in vitro, were assessed first. We used the direct FXa inhibitor rivaroxaban as a positive control for our experiments. […] In the aPTT experiments, rivaroxaban at 8.38 μM and CSL at 7.23 μM, respectively, doubled the clotting time. Each mouse group (n = 5) received intravenous injections of CSL for 4 consecutive days to validate the in vitro results in an ex vivo experiment. […] In the ex vivo aPTT assays, treatment with CSL at 0.25 mg/kg and rivaroxaban at 0.29 mg/kg, respectively, doubled the clotting time. The average blood volume was determined to be 2 mL based on an estimated circulating blood volume for mice of 72 mL/kg and an average weight of 27 g for each animal used in this investigation. As a result, the estimated concentration of CSL in the peripheral blood after each injection ([…]) was 2.5, 5, 10, or 20 μM, respectively.
(§4) Plasma was taken by centrifuging blood (2000× g for 10 min) at room temperature following dimethyl sulfoxide (DMSO) or CSL administration for 1 h to assess PT and aPTT using a thrombotimer (Behnk Elektronik, Norderstedt, Germany). […] Next, the clotting time was measured.

platelets = conditions: cited from earlier work
[5] = tested on: FeCl3-induced carotid artery thrombosis; assay: FeCl3-induced carotid artery thrombosis model; format: in vivo, mouse; conditions: mice
Experimental: A mouse model of FeCl3-induced thrombosis was created and used. Male C57BL/6 mice were starved for the entire night before receiving intravenous injections of the relevant drug in 0.2 mL of DMSO and were allowed to sleep. The carotid artery of the animal was exposed. The adventitial surface was covered with a cotton thread (200 μm in diameter) soaked in FeCl3 solution (0.25 M) for 5 min. The wound was flushed with saline solution once the thread had been removed. […] We measured the size and rate of thrombus formation, and we graded our results as follows: no thrombus or small thrombus (75–50 μm), medium thrombus (150–100 μm), massive thrombus (300–200 μm), and more than three thrombi. It was also noted how long it took for an extensive thrombus to obstruct the carotid artery following endothelial damage caused by FeCl3.

[6] = tested on: platelet-poor plasma (PPP); assay: Ex vivo aPTT clotting time after intravenous injection; format: in vivo, mouse; conditions: mice, intravenous
Experimental: as §3, §2
Male C57BL/6 mice aged 7 weeks (mean weight: 27 g) were purchased from Orient Bio Co., in Sungnam, Republic of Korea, and were subjected to a 12-day acclimatization phase. […]
as §4

Question: With O=C(NC[C@H]1CN(c2ccc(N3CCOCC3=O)cc2)C(=O)O1)c1ccc(Cl)s1 [Rivaroxaban, rivaroxaban, reference compound] as the molecule, how does the “platelet aggregation induced by ADP” value ([1]; ADP 10 μM) read?
Answer: Its value is “did not affect”.

Question: What about the “platelet aggregation induced by U46619” value ([1]; U46619 6 μM) of the same molecule?
Answer: The value was “did not affect”.

Question: What about the “platelet aggregation induced by collagen” value ([1]; collagen 1 μg/mL) of the same molecule?
Answer: The value was “did not affect”.

Question: And the “platelet aggregation induced by thrombin” value ([1]; thrombin 3 U/mL)?
Answer: The value was “did not affect”.

Question: And the “concentration that doubled the clotting time (in vitro aPTT)” value [2]?
Answer: Its value is 8.38 µM.

Question: And the Mortality % ([3]; 0.13 mg/kg intravenous)?
Answer: Its Mortality % is 85 ^# %.

Question: And the “Scored thrombus formation (Thrombi), lung” value ([3]; 0.13 mg/kg intravenous)?
Answer: Its value is 3.1 ± 0.1.

Question: And the Mortality % ([3]; 0.26 mg/kg intravenous)?
Answer: The Mortality % was 75 ^# %.

Question: And the “Scored thrombus formation (Thrombi), lung” value ([3]; 0.26 mg/kg intravenous)?
Answer: The value was 2.6 ± 0.1.

Question: And the Mortality % ([3]; 0.51 mg/kg intravenous)?
Answer: Its Mortality % is 55 ^# %.

Question: What about the “Scored thrombus formation (Thrombi), lung” value ([3]; 0.51 mg/kg intravenous) of the same molecule?
Answer: The value was 1.9 ± 0.2.

Question: And the PT [4]?
Answer: Its PT is “did not change”.

Question: And the platelet aggregation (platelets; blood taken from patients on rivaroxaban treatment)?
Answer: The platelet aggregation was “decreased platelet aggregation”.

Question: And the “platelet aggregation brought on by collagen, ADP, thromboxane A2, or thrombin” value (platelets; previous studies)?
Answer: Its value is “not to affect”.

Question: What about the Scored thrombus formation ([5]; 0.13 mg/kg intravenous) of the same molecule?
Answer: Its Scored thrombus formation is 3.5 ± 0.1.

Question: And the “Time to Large Thrombus Formation” value ([5]; 0.13 mg/kg intravenous)?
Answer: Its value is 15.3 ± 1.1 min.

Question: What about the Scored thrombus formation ([5]; 0.26 mg/kg intravenous) of the same molecule?
Answer: Its Scored thrombus formation is 3.1 ± 0.3.

Question: What about the “Time to Large Thrombus Formation” value ([5]; 0.26 mg/kg intravenous) of the same molecule?
Answer: The value was 21.8 ± 1.9 min.

Question: And the Scored thrombus formation ([5]; 0.51 mg/kg intravenous)?
Answer: The Scored thrombus formation was 2.3 ± 0.1.

Question: And the “Time to Large Thrombus Formation” value ([5]; 0.51 mg/kg intravenous)?
Answer: Its value is 44.3 ± 3.1 min.

Question: And the “dose that doubled the clotting time (ex vivo aPTT)” value [6]?
Answer: Its value is 0.29 mg/kg.

— publication PMC10145360, “Antiplatelet Aggregation Properties of Cirsilineol: A Novel Inhibitor of Blood Coagulation Factor Xa” (Pharmaceuticals, 2023)
